This note sets out measurements from US20140073637A1, “AMINO-SUBSTITUTED-ALKYLOXY-BENZO[E]PYRIDO[4,3-B]INDOLE DERIVATIVES AS NEW POTENT KINASE INHIBITORS” (INSTITUT CURIE, priority 2011, published 2014).

The remaining activity is the share of the control activity or signal that is left under treatment.

The structures appear in SMILES notation. Like-named read-outs stand apart in the source and are kept apart here.

One series addresses Aurora B (Homo sapiens, UniProt Q96GD4). In words: Kinase profiling in vitro at 1 μM. Format: biochemical. The procedure: (§1) The specificity of C14 was tested, in vitro, against 121 kinases representative of the kinome. Assays run in duplicate, at the concentration of 1 μM, were performed by MRC (Dundee, UK). Results are represented in FIG. 1. The main targets are highlighted in FIG. 1B.
(§2) In addition, the percentage of remaining activity of recombinant kinases Aurora kinases A and B and Checkpoint kinases 1 and 2 at the concentration of 1 μM of C1, C2 and C14 have been determined.
(§3) The profiling was performed at the MRC (Dundee University), in duplicate, on a set of 121 kinases. The panel is representative of the major different classes of kinases. Compounds were used at the concentration of 1 μM. In vitro, IC50 were determined on recombinant kinases by Reaction biology Corp (USA).

Another series concerns the target T1, CHK1 (Homo sapiens, UniProt O14757).
T1 sequence (O14757 1-476): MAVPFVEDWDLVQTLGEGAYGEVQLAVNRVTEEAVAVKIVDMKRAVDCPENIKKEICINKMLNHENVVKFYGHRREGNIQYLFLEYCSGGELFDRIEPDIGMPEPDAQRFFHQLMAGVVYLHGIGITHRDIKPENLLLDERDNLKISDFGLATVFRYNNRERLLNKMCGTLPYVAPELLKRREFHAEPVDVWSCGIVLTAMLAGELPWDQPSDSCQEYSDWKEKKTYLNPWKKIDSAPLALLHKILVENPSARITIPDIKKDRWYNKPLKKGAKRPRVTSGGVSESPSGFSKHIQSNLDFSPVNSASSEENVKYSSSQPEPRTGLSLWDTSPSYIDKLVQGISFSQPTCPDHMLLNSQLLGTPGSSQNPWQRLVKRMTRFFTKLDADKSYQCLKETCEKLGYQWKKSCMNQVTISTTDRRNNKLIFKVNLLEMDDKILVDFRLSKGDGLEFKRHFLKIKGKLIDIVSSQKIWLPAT
In words: Kinase profiling in vitro at 1 μM. Format: biochemical. The procedure: as §1, §2, §3

In a further series the target is Chk2 (Homo sapiens, UniProt O96017). Briefly: Kinase profiling in vitro at 1 μM. Type of series: biochemical. The procedure:
as §1, §2, §3

A further series has as its system Quiescent H358 cells. Briefly: Viability of quiescent (serum-deprived) cells. Format: cell-based. The note with it: 0.5 μM, 96 hours post-treatment, absence of serum. The procedure:
FIG. 5: Quiescent H358 cells were incubated with the compound, for 96 h, in the absence of serum. Three different concentrations of C14 were used and live cells were estimated with MTT (Promega). In the control only DMSO was added.
H358 cells were deprived in serum for 2 days and then incubated with the compound, for 96 h, still in the absence of serum. At the concentration (0.5 μM) that induced death of more than 50% of cycling cells, 90% of the cells are still alive 96 hours post-treatment (FIG. 5). C14 is thus not deleterious for quiescent cells.
Cells were drawn to quiescence by serum withdrawn. After two days of serum deprivations cells were incubated with different concentrations of compounds for 96 hours, serum being still omitted. The viability is determined as described above.

The subject of the next series is HeLa cells. Briefly: Cell cycle analysis by FACS (propidium iodide). The following applies: 0.5 μM. Format: cell-based. The procedure: The influence of the C14 treatment versus C1 and control (Te) were analysed by FACS following propidium iodine labelling. C1 and C14 were added at the concentration of 0.5 μM and the treatment lasted either 30 h or 48 h. On the top histogram, arrows allowed the visualization of the different phases of the cell cycle and the corresponding data are reported in Table 4.
HeLa cells were incubated in the presence of either C1 (0.5 μM) or C14 (0.5 μM) or DMSO (Te) and the reparation of the cells in the different phases is analyzed by FACS.
Cells were incubated in either the presence or the absence of compounds. For determination of cell cycle profile, cells were fixed by ice-cold 70% ethanol for 1 h and then, incubated with propidium iodide solution (50 μg/ml PI in the presence of 0.2 mg/ml RNAse) for 15 minutes at 37° C. DNA content was measured using the FACS flow cytometer equipped with CellQuest Pro software (Becton Dickinson, San Diego, Calif.).
A general note: Flow cytometry measures light scatter and fluorescence of single cells or particles in a stream.

For series [1], the system named is Hek cells stably expressing tubulin-GFP. In words: Time-lapse of Hek cells expressing tubulin-GFP. The note with it: 0.5 μM; continuous imaging. Type of series: cell-based. The procedure: Mitotic Hek cells stably expressing tubulin-GFP were continuously imaged and representative of either control or treated cells (C14 and C1, 0.5 μM) are shown. Elapse times are indicated on each photo.
Mitotic Hek cells stably expressing tubulin-GFP were continuously imaged and representative of either control or treated cells (C14 and C1, 0.5 μM) are shown (FIG. 8). Elapse times are indicated on each photo. In the control as well as in the presence of C1 the mitotic spindle is organized (24 min and To respectively) whereas in the presence of C14, the two poles are only connected by few microtubules (97 min and 130 min). Finally, in the presence of C14, cells escape from mitosis and cytoplasmic microtubules are observed (159 min and 212 min). Note that a duplication of the spindle occurs upon C1 treatment (106 min)

The nature of the next series: Water solubility. Type of series: physicochemical.
[2] abbreviates: 1 microMolar in vitro, read-out: Percent of remaining activity.
Setting [3] is: compound at 1 μM, read-out: percentage of remaining activity of recombinant kinase.
[4] abbreviates: Chk1, compound at 1 μM, read-out: percentage of remaining activity of recombinant kinase.

Chk2, sequence (O96017 whole entry, species assumed): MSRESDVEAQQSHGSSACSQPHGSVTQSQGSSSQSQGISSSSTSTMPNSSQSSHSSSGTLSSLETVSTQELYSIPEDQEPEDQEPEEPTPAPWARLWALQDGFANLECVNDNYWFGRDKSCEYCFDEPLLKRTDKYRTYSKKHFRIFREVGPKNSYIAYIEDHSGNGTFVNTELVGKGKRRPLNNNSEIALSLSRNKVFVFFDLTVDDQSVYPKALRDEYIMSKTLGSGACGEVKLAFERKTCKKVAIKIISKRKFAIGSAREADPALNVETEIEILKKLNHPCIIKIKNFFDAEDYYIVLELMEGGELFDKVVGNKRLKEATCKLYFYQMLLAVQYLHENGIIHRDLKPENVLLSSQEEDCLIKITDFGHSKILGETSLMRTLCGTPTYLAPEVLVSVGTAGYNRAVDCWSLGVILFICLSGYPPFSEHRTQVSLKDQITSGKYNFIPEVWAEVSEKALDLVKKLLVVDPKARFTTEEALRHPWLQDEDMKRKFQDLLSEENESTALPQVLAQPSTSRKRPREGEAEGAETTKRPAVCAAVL
Aurora B, sequence (Q96GD4 whole entry): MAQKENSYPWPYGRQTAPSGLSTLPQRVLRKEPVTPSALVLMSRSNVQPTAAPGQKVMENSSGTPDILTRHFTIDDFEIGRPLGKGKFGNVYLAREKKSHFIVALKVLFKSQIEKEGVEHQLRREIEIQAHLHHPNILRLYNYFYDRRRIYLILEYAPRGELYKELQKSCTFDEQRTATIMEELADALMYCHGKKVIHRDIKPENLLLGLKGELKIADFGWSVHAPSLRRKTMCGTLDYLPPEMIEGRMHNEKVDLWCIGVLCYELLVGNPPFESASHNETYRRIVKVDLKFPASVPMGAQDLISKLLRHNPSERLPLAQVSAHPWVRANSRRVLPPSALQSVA

For the compound `Cc1c[nH]c(=O)c2c1[nH]c1ccc3cc(OCCN(C)C)ccc3c12` [Compound C14, 3-(2-N,N-Dimethylaminoethoxy)-8-methyl-7H,10H-benzo[e]pyrido(4,3-b)indol-11-one], the remaining activity at 1 µM came to 24% on Aurora B (setting [2]); 24% on Aurora B (setting [3]); 31% at CHK1 (CHK1, 1 microMolar in vitro, read-out: Percent of remaining activity); 31% on CHK1 (setting [4]); 9% at Chk2 (setting [2]); 9% at Chk2 (setting [3]). This compound also returned a cells still alive with Quiescent H358 cells of 90%. Also, the “<2N in %” value in the series with HeLa cells (30 h) was 19%; in the series on HeLa cells (48 h) it was 22%. Moreover, the “>4N in %” value in the series with HeLa cells (30 h) and with HeLa cells (48 h) was 56% throughout. Also, the G0/G1 in % in the series with HeLa cells (30 h) is 3%; in the series with HeLa cells (48 h), 2%. Moreover, the G2/M in % turned out to be 18% in the series with HeLa cells (30 h) and 4% with HeLa cells (48 h). Also, the S in % in the series with HeLa cells (30 h) came to 4%; in the series with HeLa cells (48 h) it was 2%. For the same compound, the figures for the “cells in G0/G1 and S” value in the series with HeLa cells (30 h) and with HeLa cells (48 h) were 7% and 5%, respectively. Besides, in series [1], the “effect on mitotic spindle (in words)” value is reported as “prevented mitotic spindle organization”. For the same compound, in the series “Water solubility”, the “solubility in water (in words)” value was “water soluble”.
`CCc1c[nH]c(=O)c2c1[nH]c1ccc3cc(OC)ccc3c12` [Compound C1, reference compound]: the remaining activity at 1 µM at Aurora B (setting [3]) turned out to be 19%. Also, on CHK1 (setting [4]), the remaining activity at 1 µM was determined as 23%. Further, the remaining activity at 1 µM on Chk2 (setting [3]) came to 6%. Besides, in the series with HeLa cells (30 h), the “<2N in %” value was determined as 6%, the “>4N in %” value worked out at 26%, the G0/G1 in % was found to be 24% and the G2/M in % amounted to 28%. In the series with HeLa cells (30 h), this compound had a S in % of 13%. Moreover, in the series with HeLa cells (48 h), the “<2N in %” value is on record as 6%, the “>4N in %” value was 41%, the G0/G1 in % turned out to be 18% and the G2/M in % was 22%. In the series with HeLa cells (48 h), the S in % is 8%. Also, the cells still cycling in the series with HeLa cells (after 48 h of treatment) amounted to 48%. Also, the “effect on mitotic spindle (in words)” value in series [1] is recorded as “induced its duplication”.
